Read-outs that look alike come from different tables or passages of the source.
Legend:
PERK = molecular target: T1, PERK (Homo sapiens, UniProt Q9NZJ5); experiment: biochemical; design: 33P incorporation kinase assay (Reaction Biology), myelin basic protein substrate; conditions: 10 uM ATP
T1 construct: gene EIF2AK3
T1 sequence (Q9NZJ5 1-1116): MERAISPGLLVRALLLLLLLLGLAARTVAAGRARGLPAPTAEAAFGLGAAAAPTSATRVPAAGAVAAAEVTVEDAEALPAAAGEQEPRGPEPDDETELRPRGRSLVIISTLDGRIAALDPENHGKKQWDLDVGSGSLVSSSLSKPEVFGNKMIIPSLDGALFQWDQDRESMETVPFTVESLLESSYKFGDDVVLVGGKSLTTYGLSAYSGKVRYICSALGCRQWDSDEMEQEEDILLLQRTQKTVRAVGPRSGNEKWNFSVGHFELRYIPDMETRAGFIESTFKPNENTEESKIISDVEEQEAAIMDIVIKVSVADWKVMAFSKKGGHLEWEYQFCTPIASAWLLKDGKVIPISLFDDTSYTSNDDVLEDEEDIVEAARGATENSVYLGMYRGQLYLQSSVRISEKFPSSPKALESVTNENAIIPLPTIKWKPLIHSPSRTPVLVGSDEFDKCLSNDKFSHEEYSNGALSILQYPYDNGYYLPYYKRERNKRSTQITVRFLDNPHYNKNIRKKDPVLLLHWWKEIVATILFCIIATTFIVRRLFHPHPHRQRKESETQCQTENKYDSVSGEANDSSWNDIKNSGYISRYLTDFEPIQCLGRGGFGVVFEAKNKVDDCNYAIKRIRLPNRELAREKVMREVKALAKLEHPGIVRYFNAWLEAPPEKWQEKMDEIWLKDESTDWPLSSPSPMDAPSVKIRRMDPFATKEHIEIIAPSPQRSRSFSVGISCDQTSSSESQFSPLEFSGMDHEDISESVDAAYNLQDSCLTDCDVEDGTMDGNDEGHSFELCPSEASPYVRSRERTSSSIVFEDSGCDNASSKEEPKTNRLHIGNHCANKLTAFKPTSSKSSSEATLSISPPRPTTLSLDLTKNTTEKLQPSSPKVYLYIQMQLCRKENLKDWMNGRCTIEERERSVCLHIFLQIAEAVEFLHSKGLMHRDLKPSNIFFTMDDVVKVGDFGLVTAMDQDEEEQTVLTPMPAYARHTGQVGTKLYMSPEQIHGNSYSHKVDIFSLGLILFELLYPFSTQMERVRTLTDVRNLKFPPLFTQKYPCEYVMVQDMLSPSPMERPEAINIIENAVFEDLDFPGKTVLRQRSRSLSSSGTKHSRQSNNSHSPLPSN
From the text: We set out to identify allosteric activators of IRE1 RNase by screening internal compound libraries for binding to the kinase, using a published ATP-competitive TR-FRET assay. We then tested kinase binders to assess RNase modulation in an IRE1-specific kinetic RNA cleavage assay that uses the cytoplasmic construct IRE1-LKR (Q470-L977) (Supplementary Fig. 1a). […] Next, we tested these compounds in KMS-11 multiple myeloma cells, known to express functional IRE1 and strongly depend on the IRE1 pathway due to hyper-production of immunoglobulins in the ER[31]. We measured mRNA levels of XBP1s and the well-established RIDD target DGAT2[22] (Fig. 1c and Supplementary Fig. 1c, respectively) using a branched DNA (bDNA) assay. […] Importantly, neither G-9807 nor G-1749 inhibit PERK (Supplementary Table 1).

[1] = molecular target: Inositol-Requiring Enzyme 1 (IRE1) (Homo sapiens, UniProt O75460); experiment: biochemical; design: gene ERN1; IRE1 cytoplasmic kinase-RNase construct; kinetic fluorescence RNA cleavage (FAM/BHQ XBP1 stem-loop) by IRE1 LKR Q470-L977
Chain of Inositol-Requiring Enzyme 1 (IRE1) (O75460 547-977): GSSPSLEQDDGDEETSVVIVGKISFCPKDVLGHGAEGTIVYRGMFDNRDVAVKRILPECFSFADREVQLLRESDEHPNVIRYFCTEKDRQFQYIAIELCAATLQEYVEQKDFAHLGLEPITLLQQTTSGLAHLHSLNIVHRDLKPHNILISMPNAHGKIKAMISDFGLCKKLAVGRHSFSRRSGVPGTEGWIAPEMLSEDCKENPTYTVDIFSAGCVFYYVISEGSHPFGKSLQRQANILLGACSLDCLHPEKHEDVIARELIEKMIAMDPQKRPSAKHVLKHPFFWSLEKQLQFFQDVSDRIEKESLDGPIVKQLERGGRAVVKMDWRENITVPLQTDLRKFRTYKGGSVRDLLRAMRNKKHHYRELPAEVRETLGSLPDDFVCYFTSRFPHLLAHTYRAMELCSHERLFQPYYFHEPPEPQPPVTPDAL
Description: A 5′-Carboxyfluorescein (FAM)-and 3′-Black Hole Quencher (BHQ)-labeled single stem-loop mini-substrate containing XBP1 sequence (sequence reported in Supplementary Table 4) was used as substrate for cleavage by IRE1 LKR (Q470-L977) or IRE1 KR (G547-L977) in 20 mM HEPES pH 7.5, 50 mM potassium acetate, 1 mM magnesium acetate, 1 mM dithiothreitol, 0.05% v/v TritonX-100. Concentrations were as follows: 8 nM IRE1 LKR and 200 nM RNA substrate; 22 nM IRE1 KR-0P and 200 nM RNA substrate; 2 nM IRE1 KR 3P and 500 nM RNA substrate. RNA cleavage was measured kinetically over an hour at room temperature as an increase in fluorescence. The final reaction was carried out in 20 µL in 384-well plates. Samples were run in duplicate. To investigate whether this peculiar conformation had any role in the mechanism of activation of G-1749, we evaluated different tails to substitute the ethyl carbamate on the naphthyl moiety (Fig. 3, Supplementary Table 2). […] This is likely due to clashes with residues lining the front pocket, which in turn would force the tails to occupy the back pocket and break the salt bridge, thereby causing RNase inhibition. […] Experiments in KMS-11 cells (Fig. 3b, c, right panels) confirmed the effect of these tail modifications on IRE1 RNase activation. […] The chemical substituents tolerated by the front pocket seem to be very limited: even a minor substitution of the carbamate oxygen atom to a larger [compound left out], from ethyl carbamate to propyl amide (compound 6), or from methyl carbamate to methyl or ethyl amide (compound 4 or 5, respectively), or increasing the tail length by one atom, from ethyl to propyl carbamate (compound 11), is enough to impart a switch from activation to inhibition (Fig. 3b, c). […] RNA cleavage was measured by a kinetic fluorescence assay using an XBP1-like RNA hairpin substrate and IRE1 LKR construct (Q470-L977). Background from the no-protein control was subtracted from signal before calculating fold change. Source data are provided as a Source Data file. Data are presented as the mean for measurements from two independent experiments (n = 2). c RNA levels for IRE1 RNase product XBP1s measured by bDNA assay of lysates from KMS-11 cells treated with compounds for 4 h. Background from the no-RNA control was subtracted from signal before calculating fold change. Source data are provided as a Source Data file. Data are presented as the mean for measurements from two independent experiments (n = 2). d, e Analytical Ultracentrifugation sedimentation velocity (SV-AUC) experiments for (d), IRE1 LKR (Q470-L977) unphosphorylated and autophosphorylated and (e), IRE1 LKR unphosphorylated in the presence of slight excess G-9807 and G-1749. Calculated sedimentation coefficients for IRE1 monomer (3.1 svedbergs) and dimer (4.6 svedbergs) are highlighted by dotted lines. Source data are provided as a Source Data file.

[2] = RNase activation, read-out: EC50 (RNase biochemical assay), activators

## Cc1ccc2c(NS(=O)(=O)c3ccccc3Cl)cccc2c1Oc1ncccc1-c1ccnc(N[C@H]2CCCNC2)n1 [AMG-18]
PERK
  inhibition at 1 µM: 5.4%
[1]; RNase inhibition, read-out: EC50 (RNase biochemical assay), inhibitors
  EC50: 17 ± 4 nM

## CCOC(=O)Nc1cccc2c(Oc3ncccc3-c3ccnc(N[C@H]4CCCNC4)n3)c(C)ccc12 [G-1749]
PERK
  inhibition at 1 µM: 9.9%
[1]; [2]
  EC50: 9 ± 3 nM

## CC#CC(=O)Nc1cccc2c(Oc3ncccc3-c3ccnc(N[C@H]4CCCNC4)n3)c(C)ccc12 [G-7658]
[1]; [2]
  EC50: 7 ± 1 nM

## O=c1cc(-c2n[nH]c3ncc(-c4c(F)cccc4F)cc23)nc(N2CCC(O)CC2)[nH]1 [G-9807]
PERK
  inhibition at 1 µM: 4.5%
[1]; [2]
  EC50: 18 ± 3 nM
